Measurements taken from article PMC9403976, “Elucidating the path to Plasmodium prolyl-tRNA synthetase inhibitors that overcome halofuginone resistance” (Nature Communications, 2022).
Values joined by “and” are separate entries in the source; they are usually repeats but may differ in a detail not shown here. Equal values may be shown once. Read-outs that look alike come from different tables or passages of the source.

Tests used:
HsProRS = HsProRS (Homo sapiens, UniProt P07814); assay: TR-FRET ligand displacement assay with tracer MAT379 (CoraFluor-1-Halo and anti-His6 antibody formats); type: binding; parameters: made in house; host or cells: E. coli SoluBL-21; details: for TR-FRET dose-response, normalized signal (SI Fig 11): individual replicates
PfcProRS = target: T1, PfcProRS (Plasmodium falciparum, UniProt Q8I5R7); type: binding; details: single replicates
T1 construct: made in house; host or cells: E. coli SoluBL-21
T1 sequence (Q8I5R7 249-746): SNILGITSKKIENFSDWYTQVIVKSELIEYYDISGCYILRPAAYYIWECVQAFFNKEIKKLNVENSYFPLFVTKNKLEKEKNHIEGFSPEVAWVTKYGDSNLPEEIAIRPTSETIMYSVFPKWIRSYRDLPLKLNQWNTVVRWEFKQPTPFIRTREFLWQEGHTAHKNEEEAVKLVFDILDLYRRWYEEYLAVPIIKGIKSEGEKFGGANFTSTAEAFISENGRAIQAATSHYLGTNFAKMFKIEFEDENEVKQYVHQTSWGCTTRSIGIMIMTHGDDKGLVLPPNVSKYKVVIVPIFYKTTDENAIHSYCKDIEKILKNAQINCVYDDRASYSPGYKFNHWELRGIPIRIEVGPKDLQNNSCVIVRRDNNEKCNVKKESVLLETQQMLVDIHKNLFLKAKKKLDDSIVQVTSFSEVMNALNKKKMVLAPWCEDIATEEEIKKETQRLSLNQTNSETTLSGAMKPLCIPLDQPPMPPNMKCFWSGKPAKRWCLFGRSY

Chain of HsProRS (P07814 996-1512): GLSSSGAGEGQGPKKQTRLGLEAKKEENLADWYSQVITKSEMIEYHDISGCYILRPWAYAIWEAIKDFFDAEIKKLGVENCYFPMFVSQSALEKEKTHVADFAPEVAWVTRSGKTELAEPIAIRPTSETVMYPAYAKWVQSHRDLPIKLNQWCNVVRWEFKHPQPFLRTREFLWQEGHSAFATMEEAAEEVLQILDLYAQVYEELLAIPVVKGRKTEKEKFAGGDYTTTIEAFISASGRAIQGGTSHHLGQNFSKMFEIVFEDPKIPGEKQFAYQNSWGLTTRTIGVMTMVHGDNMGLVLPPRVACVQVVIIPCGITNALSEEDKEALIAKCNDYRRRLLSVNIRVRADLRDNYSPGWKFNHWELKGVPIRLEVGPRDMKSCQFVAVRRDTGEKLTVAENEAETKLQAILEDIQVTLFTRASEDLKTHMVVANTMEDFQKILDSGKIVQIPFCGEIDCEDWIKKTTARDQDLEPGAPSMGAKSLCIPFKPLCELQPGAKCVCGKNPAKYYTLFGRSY

Structure (SMILES): CC(C)N(C(=O)Nc1nccnc1C(=O)NC1Cc2ccccc2C1)C(C)C [compound 5]
- Kd (HsProRS; HsProRS - best Kd, SI Fig 16a, values on -log scale): 1.02 µM
- normalized TR-FRET ligand displacement signal, dose-response replicates (SI Fig 6) (HsProRS; Log[inhibitor] (M) -5.000): 8.71E-01 and 7.50E-01 and 6.79E-01
- TR-FRET dose-response, normalized signal (SI Fig 11) (HsProRS; Log[inhibitor] (M) -5.000): 6.19E-01 and 6.48E-01 and 6.40E-01
- normalized TR-FRET ligand displacement signal, dose-response replicates (SI Fig 6) (HsProRS; Log[inhibitor] (M) -5.301): 9.58E-01 and 7.89E-01 and 8.27E-01
- TR-FRET dose-response, normalized signal (SI Fig 11) (HsProRS; Log[inhibitor] (M) -5.301): 7.58E-01 and 7.59E-01 and 7.76E-01
- normalized TR-FRET ligand displacement signal, dose-response replicates (SI Fig 6) (HsProRS; Log[inhibitor] (M) -5.601): 8.37E-01 and 1.05E+00 and 1.03E+00
- TR-FRET dose-response, normalized signal (SI Fig 11) (HsProRS; Log[inhibitor] (M) -5.601): 8.37E-01 and 8.60E-01 and 8.59E-01
- normalized TR-FRET ligand displacement signal, dose-response replicates (SI Fig 6) (HsProRS; Log[inhibitor] (M) -5.904): 1.09E+00 and 1.03E+00 and 9.64E-01
- TR-FRET dose-response, normalized signal (SI Fig 11) (HsProRS; Log[inhibitor] (M) -5.904): 9.61E-01 and 8.97E-01 and 9.02E-01
- normalized TR-FRET ligand displacement signal, dose-response replicates (SI Fig 6) (HsProRS; Log[inhibitor] (M) -6.208): 9.53E-01 and 8.96E-01 and 9.38E-01
- TR-FRET dose-response, normalized signal (SI Fig 11) (HsProRS; Log[inhibitor] (M) -6.208): 9.36E-01 and 9.49E-01 and 9.17E-01
- normalized TR-FRET ligand displacement signal, dose-response replicates (SI Fig 6) (HsProRS; Log[inhibitor] (M) -6.509): 9.42E-01 and 9.99E-01 and 1.01E+00
- TR-FRET dose-response, normalized signal (SI Fig 11) (HsProRS; Log[inhibitor] (M) -6.509): 8.96E-01 and 8.83E-01 and 9.32E-01
- normalized TR-FRET ligand displacement signal, dose-response replicates (SI Fig 6) (HsProRS; Log[inhibitor] (M) -6.796): 1.20E+00 (2×) and 1.11E+00
- TR-FRET dose-response, normalized signal (SI Fig 11) (HsProRS; Log[inhibitor] (M) -6.796): 9.19E-01 and 9.16E-01 and 9.35E-01
- normalized TR-FRET ligand displacement signal, dose-response replicates (SI Fig 6) (HsProRS; Log[inhibitor] (M) -7.108): 9.92E-01 and 1.02E+00 and 1.18E+00
- TR-FRET dose-response, normalized signal (SI Fig 11) (HsProRS; Log[inhibitor] (M) -7.108): 9.11E-01 and 9.16E-01 and 8.81E-01
- normalized TR-FRET ligand displacement signal, dose-response replicates (SI Fig 6) (HsProRS; Log[inhibitor] (M) -7.409): 8.86E-01 and 9.18E-01 and 1.10E+00
- TR-FRET dose-response, normalized signal (SI Fig 11) (HsProRS; Log[inhibitor] (M) -7.409): 9.21E-01 and 9.28E-01 and 9.54E-01
- normalized TR-FRET ligand displacement signal, dose-response replicates (SI Fig 6) (HsProRS; Log[inhibitor] (M) -7.710): 1.00E+00 and 9.56E-01 and 9.99E-01
- TR-FRET dose-response, normalized signal (SI Fig 11) (HsProRS; Log[inhibitor] (M) -7.710): 9.54E-01 and 9.03E-01 and 9.47E-01
- normalized TR-FRET ligand displacement signal, dose-response replicates (SI Fig 6) (HsProRS; Log[inhibitor] (M) -8.000): 1.08E+00 and 9.18E-01 and 9.67E-01
- TR-FRET dose-response, normalized signal (SI Fig 11) (HsProRS; Log[inhibitor] (M) -8.000): 9.82E-01 and 9.20E-01 and 9.02E-01
- normalized TR-FRET ligand displacement signal, dose-response replicates (SI Fig 6) (HsProRS; Log[inhibitor] (M) -8.301): 9.61E-01 and 8.84E-01 and 1.00E+00
- TR-FRET dose-response, normalized signal (SI Fig 11) (HsProRS; Log[inhibitor] (M) -8.301): 9.50E-01 and 9.79E-01 and 9.60E-01
- normalized TR-FRET ligand displacement signal, dose-response replicates (SI Fig 6) (HsProRS; Log[inhibitor] (M) -8.602): 9.71E-01 and 1.01E+00 and 8.97E-01
- TR-FRET dose-response, normalized signal (SI Fig 11) (HsProRS; Log[inhibitor] (M) -8.602): 9.46E-01 and 9.17E-01 and 9.64E-01
- normalized TR-FRET ligand displacement signal, dose-response replicates (SI Fig 6) (HsProRS; Log[inhibitor] (M) -9.000): 9.83E-01 and 9.95E-01 and 9.23E-01
- TR-FRET dose-response, normalized signal (SI Fig 11) (HsProRS; Log[inhibitor] (M) -9.000): 9.65E-01 and 9.90E-01 and 9.18E-01
- normalized TR-FRET ligand displacement signal, dose-response replicates (SI Fig 6) (HsProRS; Log[inhibitor] (M) -9.301): 9.67E-01 and 9.33E-01 and 1.01E+00
- TR-FRET dose-response, normalized signal (SI Fig 11) (HsProRS; Log[inhibitor] (M) -9.301): 9.51E-01 and 9.69E-01 and 8.77E-01
- dose-response signal (normalized), SI Fig 8 (PfcProRS; Log[inhibitor] (M) -5.000): 1.47E-01 and 1.35E-01 and 1.83E-01
- dose-response signal (normalized), SI Fig 8 (PfcProRS; Log[inhibitor] (M) -5.301): 3.88E-01 and 4.48E-01 and 4.36E-01
- dose-response signal (normalized), SI Fig 8 (PfcProRS; Log[inhibitor] (M) -5.601): 7.44E-01 and 8.07E-01 and 7.69E-01
- dose-response signal (normalized), SI Fig 8 (PfcProRS; Log[inhibitor] (M) -5.904): 8.45E-01 and 8.57E-01 and 9.58E-01
- dose-response signal (normalized), SI Fig 8 (PfcProRS; Log[inhibitor] (M) -6.208): 8.74E-01 and 8.91E-01 and 9.30E-01
- dose-response signal (normalized), SI Fig 8 (PfcProRS; Log[inhibitor] (M) -6.509): 9.93E-01 and 1.13E+00 and 1.03E+00
- dose-response signal (normalized), SI Fig 8 (PfcProRS; Log[inhibitor] (M) -6.796): 1.01E+00 and 9.89E-01 and 1.13E+00
- dose-response signal (normalized), SI Fig 8 (PfcProRS; Log[inhibitor] (M) -7.108): 9.82E-01 and 9.95E-01 and 1.21E+00
- dose-response signal (normalized), SI Fig 8 (PfcProRS; Log[inhibitor] (M) -7.409): 1.20E+00 and 1.06E+00 and 1.08E+00
- dose-response signal (normalized), SI Fig 8 (PfcProRS; Log[inhibitor] (M) -7.710): 1.11E+00 (2×) and 1.12E+00
- dose-response signal (normalized), SI Fig 8 (PfcProRS; Log[inhibitor] (M) -8.000): 1.01E+00 and 1.06E+00 and 1.07E+00
- dose-response signal (normalized), SI Fig 8 (PfcProRS; Log[inhibitor] (M) -8.301): 9.64E-01 and 1.10E+00 and 1.14E+00
- dose-response signal (normalized), SI Fig 8 (PfcProRS; Log[inhibitor] (M) -8.602): 8.54E-01 and 1.04E+00 and 1.07E+00
- dose-response signal (normalized), SI Fig 8 (PfcProRS; Log[inhibitor] (M) -9.000): 9.25E-01 and 9.26E-01 and 1.03E+00
- dose-response signal (normalized), SI Fig 8 (PfcProRS; Log[inhibitor] (M) -9.301): 8.80E-01 and 9.99E-01 and 1.04E+00
